Data from patent US10428081B2, “EGFR inhibitor, preparation method and use thereof” (Shanghai Hansoh Biomedical Co., Ltd., priority 2014, dated 2019).

Tests used:
wild-type EGFR enzyme = wild-type EGFR enzyme (Homo sapiens, UniProt P00533); assay: Enzymologic experiment of wild-type (WT) EGFR (TR-FRET); assay type: biochemical; conditions: ATP 0.1 to 5 uM
How it was run: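 Wild-type EGFR (0.1 to 1 nM final) preincubated with serially diluted compound for 10 minutes at room temperature; reaction stopped with EDTA, then labelled antibody added for 1 hour at room temperature. TR-FRET signal converted to inhibition rates; IC50 from curve fitting across concentrations.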

NCI-H1975 cells = assay: Inhibition of NCI-H1975 cell proliferation (CellTiter-Glo); assay type: cell-based; conditions: for IC50: Homo sapiens, NCI-H1975, 72 h, NCI-H1975 cell proliferation, 72 hours, CellTiter-Glo, read-out: EGFR IC50 (nM) H1975; for Selectivity of wild-type/mutant-type: ratio A431 IC50 / H1975 IC50, cells
[1] = target: exon 20 T790M mutant-type EGFR enzyme (Homo sapiens, UniProt P00533, T790M); assay: Enzymologic experiment of T790M mutant-type EGFR (TR-FRET); assay type: biochemical; conditions: for IC50: T790M EGFR enzyme, TR-FRET, ATP 1 to 10 uM; for Selectivity of wild-type/mutant-type: ratio WT IC50 / T790M IC50, enzyme
How it was run: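 Compound dilutions preincubated 10 min at room temperature; reaction ended with EDTA, then labeled antibody added for 1 h at room temperature. Inhibition rates derived from TR-FRET fluorescence signal, and IC50 obtained by curve fitting across concentrations.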

A431 cells = assay: Inhibition of A431 cell proliferation (CellTiter-Glo); assay type: cell-based; conditions: Homo sapiens, A-431, 72 h, read-out: EGFR IC50 (nM) A431
How it was run: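 Viability read as CellTiter-Glo luminescence; IC50 by curve fitting of inhibition rates.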

Sequence of exon 20 T790M mutant-type EGFR enzyme (P00533 25-1210 T790M): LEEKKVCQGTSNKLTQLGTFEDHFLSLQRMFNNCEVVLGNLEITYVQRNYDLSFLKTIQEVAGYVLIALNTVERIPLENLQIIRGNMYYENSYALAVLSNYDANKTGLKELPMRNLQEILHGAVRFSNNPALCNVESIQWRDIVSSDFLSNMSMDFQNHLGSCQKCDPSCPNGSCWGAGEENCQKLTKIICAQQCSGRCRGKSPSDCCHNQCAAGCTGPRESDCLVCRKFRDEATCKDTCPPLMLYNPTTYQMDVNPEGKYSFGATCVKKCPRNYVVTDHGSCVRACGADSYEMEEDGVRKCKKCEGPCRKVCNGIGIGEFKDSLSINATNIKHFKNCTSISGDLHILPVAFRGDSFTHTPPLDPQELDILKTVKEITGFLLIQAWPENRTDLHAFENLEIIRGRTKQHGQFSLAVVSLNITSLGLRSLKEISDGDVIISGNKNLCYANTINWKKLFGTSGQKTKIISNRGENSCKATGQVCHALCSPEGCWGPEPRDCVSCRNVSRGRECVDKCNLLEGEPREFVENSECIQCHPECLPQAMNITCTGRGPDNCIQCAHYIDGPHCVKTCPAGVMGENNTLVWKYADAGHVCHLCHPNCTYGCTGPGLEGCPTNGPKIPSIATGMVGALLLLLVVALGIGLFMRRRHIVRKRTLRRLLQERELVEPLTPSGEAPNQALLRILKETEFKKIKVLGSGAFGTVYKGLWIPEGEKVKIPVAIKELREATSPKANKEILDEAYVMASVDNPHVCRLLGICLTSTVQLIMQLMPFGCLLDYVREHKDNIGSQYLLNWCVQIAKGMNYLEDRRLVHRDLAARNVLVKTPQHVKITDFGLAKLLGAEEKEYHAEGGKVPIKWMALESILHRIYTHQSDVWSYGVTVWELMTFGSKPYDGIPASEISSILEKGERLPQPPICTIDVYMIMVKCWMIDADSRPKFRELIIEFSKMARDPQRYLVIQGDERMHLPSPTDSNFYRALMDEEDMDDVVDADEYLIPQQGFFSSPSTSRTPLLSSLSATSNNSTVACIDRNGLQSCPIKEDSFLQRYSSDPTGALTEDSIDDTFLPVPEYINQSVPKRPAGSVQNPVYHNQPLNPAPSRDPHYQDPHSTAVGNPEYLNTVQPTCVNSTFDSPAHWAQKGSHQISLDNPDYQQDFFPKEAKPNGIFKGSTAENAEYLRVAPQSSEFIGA
Sequence of wild-type EGFR enzyme (P00533 25-1210): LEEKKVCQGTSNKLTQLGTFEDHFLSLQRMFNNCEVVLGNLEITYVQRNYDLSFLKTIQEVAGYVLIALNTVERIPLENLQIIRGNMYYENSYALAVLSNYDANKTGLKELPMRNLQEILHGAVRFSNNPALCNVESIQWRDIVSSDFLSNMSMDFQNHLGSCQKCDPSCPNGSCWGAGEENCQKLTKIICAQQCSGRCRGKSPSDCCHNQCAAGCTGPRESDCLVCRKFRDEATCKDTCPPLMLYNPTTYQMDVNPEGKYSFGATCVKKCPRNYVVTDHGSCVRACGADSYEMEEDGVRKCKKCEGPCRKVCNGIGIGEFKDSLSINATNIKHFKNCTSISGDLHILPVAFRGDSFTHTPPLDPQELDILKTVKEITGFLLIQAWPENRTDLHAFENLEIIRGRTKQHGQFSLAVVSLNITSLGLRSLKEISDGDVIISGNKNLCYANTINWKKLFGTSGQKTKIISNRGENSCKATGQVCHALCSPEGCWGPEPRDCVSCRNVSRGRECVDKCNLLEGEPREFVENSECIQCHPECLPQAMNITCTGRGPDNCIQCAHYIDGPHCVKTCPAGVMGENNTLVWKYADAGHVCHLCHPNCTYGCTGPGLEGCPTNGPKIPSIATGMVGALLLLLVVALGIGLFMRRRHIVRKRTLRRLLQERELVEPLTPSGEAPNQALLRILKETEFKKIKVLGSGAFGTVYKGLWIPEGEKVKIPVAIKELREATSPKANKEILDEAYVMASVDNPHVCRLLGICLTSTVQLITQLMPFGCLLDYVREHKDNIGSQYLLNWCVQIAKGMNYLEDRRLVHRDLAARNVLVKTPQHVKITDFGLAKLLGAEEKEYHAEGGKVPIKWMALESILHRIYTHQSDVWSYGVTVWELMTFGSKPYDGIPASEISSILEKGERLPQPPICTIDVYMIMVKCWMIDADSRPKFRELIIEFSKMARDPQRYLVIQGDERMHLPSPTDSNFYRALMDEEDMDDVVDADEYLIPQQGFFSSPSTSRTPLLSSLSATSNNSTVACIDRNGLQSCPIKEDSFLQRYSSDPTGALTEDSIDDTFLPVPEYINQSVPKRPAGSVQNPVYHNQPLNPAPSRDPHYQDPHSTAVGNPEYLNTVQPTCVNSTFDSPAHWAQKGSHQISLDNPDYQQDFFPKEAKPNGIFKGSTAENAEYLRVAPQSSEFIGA

IC50 (wild-type EGFR enzyme) [nM]	IC50 (NCI-H1975 cells) [nM]	IC50 [1] [nM]	Selectivity of wild-type/mutant-type [1]	IC50 (A431 cells) [nM]	SMILES	Selectivity of wild-type/mutant-type (NCI-H1975 cells)
46.9	15.6	3.45	13.61	257	C=CC(=O)Nc1cc(Nc2nccc(-n3ncc4ccc(C#N)cc43)n2)c(OC)cc1N(C)CCN(C)C [Example 112, N-(5-((4-(6-cyano-1H-indazol-1-yl)pyrimidin-2-yl)amino)-2-((2-(dimethylamino)ethyl)(methyl)amino)-4-methoxyphenyl)acrylamide]	16.51
1.62	3.17	0.36	4.50	233	C=CC(=O)Nc1cc(Nc2nccc(-n3nc(C4CC4)c4cc(OC)ccc43)n2)c(OC)cc1N(C)CCN(C)C [Example 113, N-(5-((4-(3-cyclopropyl-5-methoxy-1H-indazol-1-yl)pyrimidin-2-yl)amino)-2-((2-(dimethylamino)ethyl)(methyl)amino)-4-methoxyphenyl)acrylamide]	73.42
42	11.6	2.28	18.40	122	C=CC(=O)Nc1cc(Nc2ncc(C(F)(F)F)c(-n3nc(C4CC4)c4cc(OC)ccc43)n2)c(OC)cc1N(C)CCN(C)C [Example 114, N-(5-((4-(3-cyclopropyl-5-methoxy-1H-indazol-1-yl)-5-(trifluoromethyl)pyrimidin-2-yl)amino)-2-((2-(dimethylamino)ethyl)(methyl)amino)-4-methoxyphenyl)acrylamide]	10.47
3.94	4.98	0.37	10.65	101	C=CC(=O)Nc1cc(Nc2ncc(Cl)c(-n3nc(C4CC4)c4cc(OC)ccc43)n2)c(OC)cc1N(C)CCN(C)C [Example 115, N-(5-((5-chloro-4-(3-cyclopropyl-5-methoxy-1H-indazol-1-yl)pyrimidin-2-yl)amino)-2-((2-(dimethylamino)ethyl)(methyl)amino)-4-methoxyphenyl)acrylamide]	20.34
43.3	29.9	0.61	71.05	199	C=CC(=O)Nc1cc(Nc2ncc(C(F)(F)F)c(-n3nc(CC)c4cc(C#N)ccc43)n2)c(OC)cc1N(C)CCN(C)C [Example 117, N-(5-((4-(5-cyano-3-ethyl-1H-indazol-1-yl)-5-(trifluoromethyl)pyrimidin-2-yl)amino)-2-((2-(dimethylamino)ethyl)(methyl)amino)-4-methoxyphenyl)acrylamide]	6.65
27.9	93.7	0.71	39.30	374	C=CC(=O)Nc1cc(Nc2ncc(Cl)c(-n3nc(CC)c4cc(C#N)ccc43)n2)c(OC)cc1N(C)CCN(C)C [Example 118, N-(5-((5-chloro-4-(5-cyano-3-ethyl-1H-indazol-1-yl)pyrimidin-2-yl)amino)-2-((2-(dimethylamino)ethyl)(methyl)amino)-4-methoxyphenyl)acrylamide]	3.99
3.66	4.91	1.05	3.49	115	C=CC(=O)Nc1cc(Nc2nccc(-n3cnc4ccccc43)n2)c(OC)cc1N(C)CCN(C)C [Example 120, N-(5-((4-(1H-benzo[d]imidazol-1-yl)pyrimidin-2-yl)amino)-2-((2-(dimethylamino)ethyl)(methyl)amino)-4-methoxyphenyl)acrylamide]	23.44
